The record followed here is patent US20120264735A1 (priority 2009, published 2012).

Broadly, the IC50 is the concentration that gives 50% inhibition.

T1 sequence (P08581 25-1390): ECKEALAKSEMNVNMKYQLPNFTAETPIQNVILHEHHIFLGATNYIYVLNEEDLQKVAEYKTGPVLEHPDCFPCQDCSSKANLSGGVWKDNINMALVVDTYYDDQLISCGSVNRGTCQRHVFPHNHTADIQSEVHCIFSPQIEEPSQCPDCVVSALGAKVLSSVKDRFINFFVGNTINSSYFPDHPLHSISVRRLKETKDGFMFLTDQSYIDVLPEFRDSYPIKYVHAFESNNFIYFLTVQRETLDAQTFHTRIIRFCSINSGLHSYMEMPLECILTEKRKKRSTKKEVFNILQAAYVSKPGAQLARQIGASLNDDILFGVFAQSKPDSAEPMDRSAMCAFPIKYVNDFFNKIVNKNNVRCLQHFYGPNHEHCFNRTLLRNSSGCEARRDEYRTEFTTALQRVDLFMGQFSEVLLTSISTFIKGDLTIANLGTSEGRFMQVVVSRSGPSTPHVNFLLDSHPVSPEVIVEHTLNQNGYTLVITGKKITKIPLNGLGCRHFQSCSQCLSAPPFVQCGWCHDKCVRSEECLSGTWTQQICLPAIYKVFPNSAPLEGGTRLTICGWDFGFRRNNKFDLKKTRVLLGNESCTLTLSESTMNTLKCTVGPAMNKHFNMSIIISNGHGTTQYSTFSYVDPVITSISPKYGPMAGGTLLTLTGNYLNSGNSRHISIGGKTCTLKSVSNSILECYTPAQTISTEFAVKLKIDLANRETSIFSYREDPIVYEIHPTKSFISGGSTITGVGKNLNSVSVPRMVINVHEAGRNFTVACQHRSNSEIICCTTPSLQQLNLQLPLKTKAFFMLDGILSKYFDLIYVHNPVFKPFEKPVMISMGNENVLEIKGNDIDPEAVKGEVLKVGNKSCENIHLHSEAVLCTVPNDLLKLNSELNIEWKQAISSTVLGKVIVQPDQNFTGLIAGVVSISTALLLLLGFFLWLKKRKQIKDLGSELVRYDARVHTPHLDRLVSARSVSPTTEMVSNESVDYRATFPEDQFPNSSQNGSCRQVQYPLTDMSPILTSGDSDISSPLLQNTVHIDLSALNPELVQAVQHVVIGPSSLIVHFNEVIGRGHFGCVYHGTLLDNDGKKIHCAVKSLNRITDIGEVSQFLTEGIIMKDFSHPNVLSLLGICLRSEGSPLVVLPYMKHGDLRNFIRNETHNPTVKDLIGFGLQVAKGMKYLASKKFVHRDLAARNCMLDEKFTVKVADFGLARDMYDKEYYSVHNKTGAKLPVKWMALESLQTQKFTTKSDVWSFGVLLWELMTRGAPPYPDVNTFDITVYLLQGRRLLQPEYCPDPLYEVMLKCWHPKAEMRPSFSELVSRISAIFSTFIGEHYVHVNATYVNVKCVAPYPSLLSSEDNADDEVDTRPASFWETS

The experiment concerns the target T1, c-Met kinase (recombinant c-Met) (Homo sapiens, UniProt P08581).
T1 construct: 0.27 nM recombinant c-Met
Description: In vitro kinase assay I (homogeneous time-resolved fluorescence tyrosine kinase assay). It is filed as biochemical. In a few lines: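 Biotinylated peptide (0.5 μM) phosphorylated by 0.2 nM recombinant c-Met with 50 μM MgATP, 60 min at room temperature, pH 7.4, 5% DMSO. EDTA stop; HTRF read with Eu-anti-phosphotyrosine antibody and streptavidin-APC. IC50 from 4-parameter logistic fit.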
Turning to `Cn1cc(-n2ccc(=O)c(Cc3cccc(-c4ncc(OCc5cccnc5)cn4)c3)n2)cn1` [Example 355, 1-(1-methyl-1H-pyrazol-4-yl)-3-{3-[5-(pyridin-3-ylmethoxy)pyrimidin-2-yl]benzyl}pyridazin-4(1H)-one], the IC50 is below 100 nM. The same measure for `CCOc1cnc(-c2cccc(Cc3nn(-c4ccc(Cl)c(F)c4)ccc3=O)c2)nc1` [Example 152, 1-(4-chloro-3-fluorophenyl)-3-[3-(5-ethoxypyrimidin-2-yl)benzyl]pyridazin-4(1H)-one]: below 100 nM; for `CCn1cnc(-c2cccc(C(C)c3nn(-c4cnn(C)c4)ccc3=O)c2)n1` (single isomer, unassigned) [Example 680, 3-{(1S or R)-1-[3-(1-ethyl-1H-1,2,4-triazol-3-yl)phenyl]ethyl}-1-(1-methyl-1H-pyrazol-4-yl)pyridazin-4(1H)-one]: 100 to 1000 nM; for `Cn1cc(-n2ccc(=O)c(Cc3cccc(NC(=O)OCC4CCO4)c3)n2)cn1` (racemic) [Example 578, rac-oxetan-2-ylmethyl (3-{[1-(1-methyl-1H-pyrazol-4-yl)-4-oxo-1,4-dihydropyridazin-3-yl]methyl}phenyl)carbamate]: below 100 nM. The same measure for `CCn1cc(-n2ccc(=O)c(C(C)c3cccc(-c4ncc(OC5CCOC5)cn4)c3)n2)cn1` (single isomer, unassigned) [Example 297, 1-(1-ethyl-1H-pyrazol-4-yl)-3-[(1R or S)-1-{3-[5-(tetrahydrofuran-3-yloxy)pyrimidin-2-yl]phenyl}ethyl]pyridazin-4(1H)-one]: below 100 nM. On to `Cn1cc(-n2ccc(=O)c(Cc3cccc(NC(=O)OCC4(C)COC4)c3)n2)cn1` [Example 543, (3-methyloxetan-3-yl)methyl (3-{[1-(1-methyl-1H-pyrazol-4-yl)-4-oxo-1,4-dihydropyridazin-3-yl]methyl}phenyl)carbamate], for which the IC50 is below 100 nM. On to `CCOc1cnc(-c2cccc(Cc3nn(-c4cc(F)cc(F)c4)ccc3=O)c2)nc1` [Example 146, 1-(3,5-difluorophenyl)-3-[3-(5-ethoxypyrimidin-2-yl)benzyl]pyridazin-4(1H)-one], for which the IC50 was below 100 nM. For `CC(c1cccc(-c2ncc(OC(C)C(C)(C)O)cn2)c1)c1nn(-c2cnn(C)c2)ccc1=O` (single isomer, unassigned) [Example 383, 3-{(1R or S)-1-[3-(5-{[(1R or S)-2-hydroxy-1,2-dimethylpropyl]oxy}pyrimidin-2-yl)phenyl]ethyl}-1-(1-methyl-1H-pyrazol-4-yl)pyridazin-4(1H)-one] the value was below 100 nM; for `Cn1cc(-n2ccc(=O)c(Cc3cccc(-c4ncc(OCC5CCOC5)cn4)c3)n2)cn1` (racemic) [Example 266, rac-1-(1-methyl-1H-pyrazol-4-yl)-3-{3-[5-(tetrahydrofuran-3-ylmethoxy)pyrimidin-2-yl]benzyl}pyridazin-4(1H)-one], below 100 nM; for `Cn1cc(-n2ccc(=O)c(Cc3cccc(-c4ncn(CCC5CCCO5)n4)c3)n2)cn1` (racemic) [Example 711, rac-1-(1-methyl-1H-pyrazol-4-yl)-3-(3-{1-[2-(tetrahydrofuran-2-yl)ethyl]-1H-1,2,4-triazol-3-yl}benzyl)pyridazin-4(1H)-one], below 100 nM.

In the case of `Cn1cc(-n2ccc(=O)c(Cc3cccc(NC(=O)OCC4CCOC(C)(C)C4)c3)n2)cn1` (racemic) [Example 611, rac-(2,2-dimethyl-tetrahydro-2H-pyran-4-yl)methyl (3-{[1-(1-methyl-1H-pyrazol-4-yl)-4-oxo-1,4-dihydropyridazin-3-yl]methyl}phenyl)carbamate], the IC50 is below 100 nM. Consider `Cn1cnc(-c2cccc(Cc3nn(-c4ccccc4)ccc3=O)c2)n1` [Example 670, 3-[3-(1-Methyl-1H-1,2,4-triazol-3-yl)benzyl]-1-phenylpyridazin-4(1H)-one], for which the IC50 is 100 to 1000 nM. The same measure for `COC(C)(C)COc1cnc(-c2cccc(Cc3nn(-c4cnn(C)c4)ccc3=O)c2)nc1` [Example 267, 3-{3-[5-(2-methoxy-2-methylpropoxy)pyrimidin-2-yl]benzyl}-1-(1-methyl-1H-pyrazol-4-yl)pyridazin-4(1H)-one]: below 100 nM; for `Cc1ccc2c(Cc3nn(-c4cnn(C)c4)ccc3=O)cccc2n1` [Example 44, 1-(1-methyl-1H-pyrazol-4-yl)-3-[(2-methylquinolin-5-yl)methyl]pyridazin-4(1H)-one]: 1000 to 3000 nM.

As for `Cn1cc(-c2cnc(-c3cccc(Cc4nn(-c5cc(F)cc(C#N)c5)ccc4=O)c3)nc2)cn1` [Example 155, 3-fluoro-5-[3-{3-[5-(1-methyl-1H-pyrazol-4-yl)pyrimidin-2-yl]benzyl}-4-oxopyridazin-1(4H)-yl]benzonitrile], the IC50 is below 100 nM. As to `Cn1cc(-n2ccc(=O)c(Cc3cccc(NC(=O)OCC(=O)O)c3)n2)cn1` [Example 629, ({[(3-{[1-(1-Methyl-1H-pyrazol-4-yl)-4-oxo-1,4-dihydropyridazin-3-yl]methyl}phenyl)amino]carbonyl}oxy)acetic acid], the 50% inhibitory concentration (IC50) is 1000 to 3000 nM. For `CCOc1cnc(-c2cccc(C(C)c3nn(-c4cnn(C)c4)ccc3=O)c2)nc1` (single isomer, unassigned) [Example 201, 3-{(1S or R)-1-[3-(5-ethoxypyrimidin-2-yl)phenyl]ethyl}-1-(1-methyl-1H-pyrazol-4-yl)pyridazin-4(1H)-one] the value was 100 to 1000 nM.

Consider `CC(c1cccc(-c2nccc(C(C)(C)O)n2)c1)c1nn(-c2cnn(C)c2)ccc1=O` (single isomer, unassigned) [Example 694, 3-[(1R or S)-1-{3-[4-(2-hydroxypropan-2-yl)pyrimidin-2-yl]phenyl}ethyl]-1-(1-methyl-1H-pyrazol-4-yl)pyridazin-4(1H)-one], for which the IC50 lay in the range of 100 to 1000 nM. Consider `C[C@@H](O)[C@@H](C)Oc1cnc(-c2cccc(Cc3nn(-c4cnn(C)c4)ccc3=O)c2)nc1` (single isomer, unassigned) [Example 374], for which the IC50 was below 100 nM. For `CCCn1cnc(-c2cccc(Cc3nn(-c4cnn(C)c4)ccc3=O)c2)n1` [Example 57, 1-(1-methyl-1H-pyrazol-4-yl)-3-[3-(1-propyl-1H-1,2,4-traizol-3-yl)benzyl]pyridazin-4(1H)-one] the value was below 100 nM; for `COCCOc1cnc(-c2cccc(Cc3nn(-c4ccc(C#N)c(F)c4)ccc3=O)c2)nc1` [Example 144, 2-fluoro-4-[3-{3-[5-(2-methoxyethoxy)pyrimidin-2-yl]benzyl}-4-oxopyridazin-1(4H)-yl]benzonitrile], below 100 nM. Consider `Cc1cc(COc2cnc(-c3cccc(Cc4nn(-c5cnn(C)c5)ccc4=O)c3)nc2)no1` [Example 285, 3-(3-{5-[(5-methylisoxazol-3-yl)methoxy]pyrimidin-2-yl}benzyl)-1-(1-methyl-1H-pyrazol-4-yl)pyridazin-4(1H)-one], for which the IC50 was below 100 nM. For `Cn1cc(-n2ccc(=O)c(Cc3cccc(-c4ncc(OC5CCC6(CC5)OCCO6)cn4)c3)n2)cn1` [Example 123, 3-{3-[5-(1,4-dioxaspiro[4.5]dec-8-yloxy)pyrimidin-2-yl]benzyl}-1-(1-methyl-1H-pyrazol-4-yl)pyridazin-4(1H)-one], the IC50 was below 100 nM. For `Cn1cc(-n2ccc(=O)c(Cc3cccc(NC(=O)OCCF)c3)n2)cn1` [Example 499, 2-fluoroethyl (3-{[1-(1-methyl-1H-pyrazol-4-yl)-4-oxo-1,4-dihydropyridazin-3-yl]methyl}phenyl)carbamate] the value was below 100 nM; for `COc1cnc(-c2cccc(C(C)c3nn(-c4cnn(C)c4)ccc3=O)c2)nc1` (single isomer, unassigned) [Example 204, 3-{(1R or S)-1-[3-(5-methoxypyrimidin-2-yl)phenyl]ethyl}-1-(1-methyl-1H-pyrazol-4-yl)pyridazin-4(1H)-one], below 100 nM. For `Cn1cc(-n2ccc(=O)c(C(F)c3ccc4ncccc4c3)n2)cn1` (racemic) [Example 753, rac-3-[Fluoro(quinolin-6-yl)methyl]-1-(1-methyl-1H-pyrazol-4-yl)pyridazin-4(1H)-one], the IC50 fell in the range of 1000 to 3000 nM.

Take `Cn1cc(-n2ccc(=O)c(Cc3cccc(-c4ncc(OCC(C)(C)O)cn4)c3)n2)cn1` [Example 358, 3-{3-[5-(2-Hydroxy-2-methylpropoxy)pyrimidin-2-yl]benzyl}-1-(1-methyl-1H-pyrazol-4-yl)pyridazin-4(1H)-one]: the IC50 is below 100 nM. For `COCCOc1cnc(-c2cccc(Cc3nn(-c4cc(F)cc(C#N)c4)ccc3=O)c2)nc1` [Example 134, 3-fluoro-5-[3-{3-[5-(2-methoxyethoxy)pyrimidin-2-yl]benzyl}-4-oxopyridazin-1(4H)-yl]benzonitrile] the value was below 100 nM; for `CCC(COC(=O)Nc1cccc(Cc2nn(-c3cc(F)cc(F)c3)ccc2=O)c1)OC` (racemic) [Example 591, rac-2-methoxybutyl (3-{[1-(3,5-difluorophenyl)-4-oxo-1,4-dihydropyridazin-3-yl]methyl}phenyl)carbamate], below 100 nM. Turning to `Cn1cc(-n2ccc(=O)c(Cc3ccc4ncc(OCC5(C)COC5)cc4c3)n2)cn1` [Example 62, 3-({3-[(3-methyloxetan-3-yl)methoxy]quinolin-6-yl}methyl)-1-(1-methyl-1H-pyrazol-4-yl)pyridazin-4(1H)-one], the IC50 is below 100 nM. Consider `CC1CCN(CCCOC(=O)Nc2cccc(Cc3nn(-c4cc(F)c(F)c(F)c4)ccc3=O)c2)CC1` [Example 553, 3-(4-methylpiperidin-1-yl)propyl (3-{[4-oxo-1-(3,4,5-trifluorophenyl)-1,4-dihydropyridazin-3-yl]methyl}phenyl)carbamate], for which the IC50 was below 100 nM. Regarding `CC(C)Cn1cc(-n2ccc(=O)c(Cc3cccc(NC(=O)OCCN4CCOCC4)c3)n2)cn1` [Example 96, 2-morpholin-4-ylethyl [3-({1-[1-(2-methylpropyl)-1H-pyrazol-4-yl]-4-oxo-1,4-dihydropyridazin-3-yl}methyl)phenyl]carbamate], the IC50 lay in the range of 100 to 1000 nM.
